Blank lines part the entries; values can stand above or below the molecule they belong to.
What was measured:
[1] = biological target: T1, Mitogen-activated protein kinase 14 (Homo sapiens, UniProt Q16539); assay: Inhibition of human recombinant untagged p38alpha expressed in Escherichia coli at 10 uM using ATF2 as substrate incubated for 60 mins in presence of [33P]-ATP by radiometric assay relative to control
[2] = biological target: T2, TGF-beta receptor type-1 (Homo sapiens) (UniProt P36897); assay: Inhibition of human recombinant GST-tagged ALK5 expressed in Sf9 insect cells at 10 uM using casein as substrate incubated for 60 mins in presence of [33P]-ATP by radiometric assay relative to control
T2 sequence (whole entry): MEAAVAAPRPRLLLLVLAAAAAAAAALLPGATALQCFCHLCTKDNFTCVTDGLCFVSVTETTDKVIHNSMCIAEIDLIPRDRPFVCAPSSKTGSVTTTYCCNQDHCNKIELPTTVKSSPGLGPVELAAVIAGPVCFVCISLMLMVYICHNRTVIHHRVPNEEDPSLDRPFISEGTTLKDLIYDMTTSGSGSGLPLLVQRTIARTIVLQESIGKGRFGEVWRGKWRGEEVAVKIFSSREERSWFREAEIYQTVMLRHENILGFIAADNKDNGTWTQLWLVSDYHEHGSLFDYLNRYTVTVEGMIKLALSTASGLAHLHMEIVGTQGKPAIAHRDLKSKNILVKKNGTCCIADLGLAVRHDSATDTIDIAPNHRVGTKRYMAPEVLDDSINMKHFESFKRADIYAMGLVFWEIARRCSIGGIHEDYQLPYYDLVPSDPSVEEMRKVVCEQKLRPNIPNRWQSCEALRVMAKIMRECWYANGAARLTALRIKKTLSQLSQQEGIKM

TGF-beta receptor type-1 = biological target: T3, TGF-beta receptor type-1 (Homo sapiens, UniProt P36897); assay: Inhibition of human recombinant GST-tagged ALK5 expressed in Sf9 insect cells using casein as substrate incubated for 60 mins in presence of [33P]-ATP by radiometric assay
T3 sequence (P36897 whole entry): T2 sequence (whole entry)

[3] = Cytotoxicity against human LX2 cells assessed as reduction in cell viability at 4 to 100 uM incubated for 3 hrs by MTT assay; format: cell-based
[4] = biological target: T1, Mitogen-activated protein kinase 14; assay: Inhibition of human recombinant untagged p38alpha expressed in Escherichia coli using ATF2 as substrate incubated for 60 mins in presence of [33P]-ATP by radiometric assay

T1 sequence (Q16539 whole entry): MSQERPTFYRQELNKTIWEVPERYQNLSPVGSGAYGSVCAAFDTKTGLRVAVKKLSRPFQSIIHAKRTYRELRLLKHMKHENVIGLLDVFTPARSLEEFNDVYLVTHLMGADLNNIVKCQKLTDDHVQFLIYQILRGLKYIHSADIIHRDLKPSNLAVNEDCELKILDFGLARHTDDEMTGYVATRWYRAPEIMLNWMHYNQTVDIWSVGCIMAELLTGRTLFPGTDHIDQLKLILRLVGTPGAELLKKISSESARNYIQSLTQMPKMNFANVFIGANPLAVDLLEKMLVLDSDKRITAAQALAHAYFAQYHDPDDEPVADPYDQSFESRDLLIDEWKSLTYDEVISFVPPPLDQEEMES

Compound: Cc1cccc(-c2nn(CC(=S)Nc3cccc(F)c3)cc2-c2ccc3nsnc3c2)n1
IC50 (TGF-beta receptor type-1): 30 nM
inhibition [1]: 0 to 66%
Activity [3]: Toxic
IC50 [4]: 7040 nM

Compound: Cc1cccc(-c2nn(CC(=S)Nc3cccc(C#N)c3)cc2-c2cc3cnccc3s2)n1
IC50 (TGF-beta receptor type-1): 78 nM
inhibition [1]: 0 to 66%
IC50 [4]: 9460 nM

Compound: Cc1cccc(-c2nn(CC(=O)Nc3cccc(F)c3)cc2-c2ccc3nsnc3c2)n1
IC50 (TGF-beta receptor type-1): 87 nM
inhibition [1]: 0 to 66%
inhibition [2]: 98 to 99%
IC50 [4]: > 10000 nM

Compound: Cc1cccc(-c2c(-c3cc4cnccc4s3)cnn2CC(=O)Nc2cccc(F)c2)n1
inhibition [1]: 0 to 66%
inhibition [2]: 46 to 91%

Compound: Cc1cccc(-c2nn(CC(=O)Nc3ccccc3)cc2-c2cc3cnccc3s2)n1
IC50 (TGF-beta receptor type-1): 39 nM
inhibition [1]: 0 to 66%
Activity [3]: Non-Toxic
IC50 [4]: 8120 nM

Compound: Cc1cccc(-c2nn(CC(=O)Nc3ccccc3)cc2-c2ccc3nsnc3c2)n1
IC50 (TGF-beta receptor type-1): 30 nM
inhibition [1]: 0 to 66%
inhibition [2]: 98 to 99%
IC50 [4]: > 10000 nM

Compound: Cc1cccc(-c2nn(CC(=O)Nc3cccc(C#N)c3)cc2-c2cc3cnccc3s2)n1
IC50 (TGF-beta receptor type-1): 230 nM
inhibition [1]: 0 to 66%
inhibition [2]: 98 to 100%
IC50 [4]: > 10000 nM

Compound: Cc1cccc(-c2c(-c3cc4cnccc4s3)cnn2CC(=O)Nc2cccc(C#N)c2)n1
inhibition [1]: 0 to 66%
inhibition [2]: 46 to 91%

Compound: Cc1cccc(-c2nn(CC(=S)Nc3cccc(F)c3)cc2-c2cc3cnccc3s2)n1
IC50 (TGF-beta receptor type-1): 125 nM
inhibition [1]: 0 to 66%
IC50 [4]: > 10000 nM

Compound: Cc1cccc(-c2nn(CC(=S)Nc3ccccc3F)cc2-c2ccc3nsnc3c2)n1
IC50 (TGF-beta receptor type-1): 55 nM
inhibition [1]: 0 to 66%
IC50 [4]: 3800 nM

The remaining lines, values ahead:

inhibition [1]: 0 to 66%
inhibition [2]: 52 to 98%
Compound: Cc1cccc(-c2c(-c3ccc4nsnc4c3)cnn2CC(=O)Nc2cccc(C#N)c2)n1

IC50 (TGF-beta receptor type-1): 42 nM
inhibition [1]: 0 to 66%
IC50 [4]: 5800 nM
Compound: Cc1cccc(-c2nn(CC(=S)Nc3ccccc3)cc2-c2ccc3nsnc3c2)n1

IC50 (TGF-beta receptor type-1): 168 nM
inhibition [1]: 0 to 66%
inhibition [2]: 98 to 99%
IC50 [4]: > 10000 nM
Compound: Cc1cccc(-c2nn(CC(=O)Nc3ccccc3F)cc2-c2ccc3nsnc3c2)n1

IC50 (TGF-beta receptor type-1): 312 nM
inhibition [1]: 0 to 66%
inhibition [2]: 98 to 100%
IC50 [4]: > 10000 nM
Compound: Cc1cccc(-c2nn(CC(=O)Nc3ccccc3F)cc2-c2cc3cnccc3s2)n1

inhibition [1]: 0 to 66%
inhibition [2]: 52 to 98%
Compound: Cc1cccc(-c2c(-c3ccc4nsnc4c3)cnn2CC(=O)Nc2cccc(F)c2)n1

IC50 (TGF-beta receptor type-1): 116 nM
inhibition [1]: 0 to 66%
IC50 [4]: > 10000 nM
Compound: Cc1cccc(-c2nn(CC(=S)Nc3cccc(C#N)c3)cc2-c2ccc3nsnc3c2)n1

inhibition [1]: 0 to 66%
inhibition [2]: 52 to 98%
Compound: Cc1cccc(-c2c(-c3ccc4nsnc4c3)cnn2CC(=O)Nc2ccccc2F)n1

IC50 (TGF-beta receptor type-1): 165 nM
inhibition [1]: 0 to 66%
inhibition [2]: 98 to 99%
IC50 [4]: > 10000 nM
Compound: Cc1cccc(-c2nn(CC(=O)Nc3cccc(C#N)c3)cc2-c2ccc3nsnc3c2)n1

inhibition [1]: 0 to 66%
inhibition [2]: 46 to 91%
Compound: Cc1cccc(-c2c(-c3cc4cnccc4s3)cnn2CC(=O)Nc2ccccc2F)n1

IC50 (TGF-beta receptor type-1): 119 nM
inhibition [1]: 0 to 66%
inhibition [2]: 98 to 100%
IC50 [4]: > 10000 nM
Compound: Cc1cccc(-c2nn(CC(=O)Nc3cccc(F)c3)cc2-c2cc3cnccc3s2)n1

inhibition [1]: 0 to 66%
inhibition [2]: 52 to 98%
Compound: Cc1cccc(-c2c(-c3ccc4nsnc4c3)cnn2CC(=O)Nc2ccccc2)n1

inhibition [1]: 0 to 66%
inhibition [2]: 46 to 91%
Compound: Cc1cccc(-c2c(-c3cc4cnccc4s3)cnn2CC(=O)Nc2ccccc2)n1
